Experimental data taken from ChEMBL document CHEMBL1136102, “Synthesis and antibacterial activity of oxazolidinone containing sulphonyl group” (2003).
Converted amounts (≈) assume the structure as drawn.

Assays:
Type in all cases: functional
[1] = tested on: Staphylococcus epidermidis; experiment: In vitro antibacterial activity against Staphylococcus epidermidis
Staphylococcus aureus = experiment: In vitro antibacterial activity against Staphylococcus aureus
Streptococcus = experiment: In vitro antibacterial activity against Streptococcus
Streptococcus pneumoniae = experiment: In vitro antibacterial activity against Streptococcus pneumoniae
Staphylococcus hominis = experiment: In vitro antibacterial activity against Staphylococcus hominis

| SMILES | MIC [1] [µg/mL] | MIC (Staphylococcus aureus) [µg/mL] | MIC (Streptococcus) [µg/mL] | MIC (Streptococcus pneumoniae) [µg/mL] | MIC (Staphylococcus hominis) [µg/mL] |
| --- | --- | --- | --- | --- | --- |
| CC(=O)NC[C@H]1CN(c2ccc(N3CCN(S(=O)(=O)c4cccc(NC(C)=O)c4)CC3)c(F)c2)C(=O)O1 | > 128 | > 128 | > 128 | > 128 | > 128 |
| CC(=O)NC[C@H]1CN(c2ccc(N3CCN(S(=O)(=O)c4cccc(N)c4)CC3)c(F)c2)C(=O)O1 | 0.25 (≈ 0.509 µM) | 0.5 (≈ 1.02 µM) | 1 (≈ 2.03 µM) | 1 (≈ 2.03 µM) | 0.25 (≈ 0.509 µM) |
| CC(=O)NC[C@H]1CN(c2ccc(N3CCN(S(=O)(=O)c4ccc(NC(C)=O)cc4)CC3)c(F)c2)C(=O)O1 | 1 (≈ 1.87 µM) | 32 (≈ 60 µM) | 32 (≈ 60 µM) | 32 (≈ 60 µM) | 4 (≈ 7.5 µM) |
| CC(=O)NC[C@H]1CN(c2ccc(N3CCN(S(=O)(=O)c4ccc([N+](=O)[O-])cc4)CC3)c(F)c2)C(=O)O1 | 8 (≈ 15.3 µM) | 128 (≈ 245 µM) | 128 (≈ 245 µM) | 128 (≈ 245 µM) | 32 (≈ 61.4 µM) |
| CC(=O)NC[C@H]1CN(c2ccc(N3CCN(S(=O)(=O)c4ccc(N)cc4)CC3)c(F)c2)C(=O)O1 | 0.25 (≈ 0.509 µM) | 16 (≈ 32.6 µM) | 16 (≈ 32.6 µM) | 16 (≈ 32.6 µM) | 0.25 (≈ 0.509 µM) |
| COc1ccc(S(=O)(=O)N2CCN(c3ccc(N4C[C@H](CNC(C)=O)OC4=O)cc3F)CC2)cc1 | 0.5 (≈ 0.987 µM) | 16 (≈ 31.6 µM) | 16 (≈ 31.6 µM) | 8 (≈ 15.8 µM) | 2 (≈ 3.95 µM) |
| CC(=O)NC[C@H]1CN(c2ccc(N3CCN(S(=O)(=O)c4ccccc4N)CC3)c(F)c2)C(=O)O1 | 4 (≈ 8.14 µM) | 8 (≈ 16.3 µM) | 2 (≈ 4.07 µM) | 2 (≈ 4.07 µM) | – |
| CC(=O)NC[C@H]1CN(c2ccc(N3CCN(S(=O)(=O)c4cccs4)CC3)c(F)c2)C(=O)O1 | 4 (≈ 8.29 µM) | 16 (≈ 33.2 µM) | 4 (≈ 8.29 µM) | 4 (≈ 8.29 µM) | – |
| CC(=O)NC[C@H]1CN(c2ccc(N3CCN(S(=O)(=O)c4ccccc4NC(C)=O)CC3)c(F)c2)C(=O)O1 | > 64 | > 64 | > 64 | > 64 | > 64 |
| CC(=O)NC[C@H]1CN(c2ccc(N3CCN(S(=O)(=O)c4cccc([N+](=O)[O-])c4)CC3)c(F)c2)C(=O)O1 | 0.25 (≈ 0.479 µM) | 4 (≈ 7.67 µM) | 4 (≈ 7.67 µM) | 1 (≈ 1.92 µM) | 0.5 (≈ 0.959 µM) |
| CC(=O)NC[C@H]1CN(c2ccc(N3CCN(S(=O)(=O)c4ccc(Br)cc4)CC3)c(F)c2)C(=O)O1 | 128 (≈ 230 µM) | > 128 | > 128 | > 128 | > 128 |
| CC(=O)NC[C@H]1CN(c2ccc(N3CCN(S(=O)(=O)c4ccc(C)cc4)CC3)c(F)c2)C(=O)O1 | 4 (≈ 8.15 µM) | 128 (≈ 261 µM) | 128 (≈ 261 µM) | > 128 | 64 (≈ 130 µM) |
| CC(=O)NC[C@H]1CN(c2ccc(N3CCN(S(=O)(=O)c4ccccc4)CC3)c(F)c2)C(=O)O1 | 0.25 (≈ 0.525 µM) | 4 (≈ 8.39 µM) | 4 (≈ 8.39 µM) | 2 (≈ 4.2 µM) | 1 (≈ 2.1 µM) |
| CC(=O)NC[C@H]1CN(c2ccc(N3CCN(S(C)(=O)=O)CC3)c(F)c2)C(=O)O1 | 0.5 (≈ 1.21 µM) | 4 (≈ 9.65 µM) | 4 (≈ 9.65 µM) | 2 (≈ 4.83 µM) | 2 (≈ 4.83 µM) |
| CC(=O)NC[C@H]1CN(c2ccc(N3CCN(S(=O)(=O)c4ccccc4[N+](=O)[O-])CC3)c(F)c2)C(=O)O1 | 4 (≈ 7.67 µM) | 8 (≈ 15.3 µM) | 8 (≈ 15.3 µM) | 8 (≈ 15.3 µM) | – |
| CC(=O)NC[C@H]1CN(c2ccc(N3CCOCC3)c(F)c2)C(=O)O1 [LINEZOLID] | 0.5 (≈ 1.48 µM) | – | 2 (≈ 5.93 µM) | – | 1 (≈ 2.96 µM) |
